Laboratory results as given in article PMC3207250 (2011).

Target: Jak2 (Homo sapiens, UniProt O60674)
Format: biochemical

Sequence of Jak2 (O60674 whole entry): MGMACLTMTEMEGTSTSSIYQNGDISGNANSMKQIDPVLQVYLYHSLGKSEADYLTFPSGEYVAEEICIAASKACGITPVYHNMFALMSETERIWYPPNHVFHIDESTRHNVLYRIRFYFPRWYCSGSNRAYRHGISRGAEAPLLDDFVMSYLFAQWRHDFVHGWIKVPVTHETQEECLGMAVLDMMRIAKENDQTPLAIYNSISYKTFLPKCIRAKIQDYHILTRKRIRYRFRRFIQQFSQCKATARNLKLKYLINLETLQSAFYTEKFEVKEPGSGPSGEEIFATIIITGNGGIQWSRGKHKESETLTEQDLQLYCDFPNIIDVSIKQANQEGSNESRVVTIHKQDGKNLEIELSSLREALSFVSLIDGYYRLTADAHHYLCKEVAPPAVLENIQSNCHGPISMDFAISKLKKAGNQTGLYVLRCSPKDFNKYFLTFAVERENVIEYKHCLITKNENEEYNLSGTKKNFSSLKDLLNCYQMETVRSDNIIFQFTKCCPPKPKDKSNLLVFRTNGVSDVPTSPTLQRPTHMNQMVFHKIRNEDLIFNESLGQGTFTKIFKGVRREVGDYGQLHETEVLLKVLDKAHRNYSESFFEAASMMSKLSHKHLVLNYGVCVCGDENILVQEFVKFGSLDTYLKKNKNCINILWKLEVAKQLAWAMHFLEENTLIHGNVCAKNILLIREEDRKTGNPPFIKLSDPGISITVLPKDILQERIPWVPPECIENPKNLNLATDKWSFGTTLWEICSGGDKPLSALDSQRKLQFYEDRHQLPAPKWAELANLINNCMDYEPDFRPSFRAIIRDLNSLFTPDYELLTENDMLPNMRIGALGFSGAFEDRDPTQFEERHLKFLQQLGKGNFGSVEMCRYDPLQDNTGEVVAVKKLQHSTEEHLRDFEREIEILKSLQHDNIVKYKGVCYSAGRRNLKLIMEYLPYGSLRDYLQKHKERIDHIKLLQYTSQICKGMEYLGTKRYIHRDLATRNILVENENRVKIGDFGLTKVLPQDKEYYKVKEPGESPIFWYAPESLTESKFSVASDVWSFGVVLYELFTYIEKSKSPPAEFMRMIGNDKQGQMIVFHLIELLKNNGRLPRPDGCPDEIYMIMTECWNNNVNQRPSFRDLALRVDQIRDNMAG

Compound `NC(=O)Nc1sc(-c2ccc(F)cc2)cc1C(N)=O` [TPCA-1, 2-[(Aminocarbonyl)amino]-5-(4-fluorophenyl)-3-thiophenecarboxamide] has a Ki of about 9 nM.
